Assay results published in publication PMC10449621, “Engineering cellular communication between light-activated synthetic cells and bacteria” (Nature Chemical Biology, 2023).
Values joined by “and” are separate entries in the source; they are usually repeats but may differ in a detail not shown here. Equal values may be shown once.

Tests used:
[1] = system: BjaRS107R (B0034|CTG) receiver cells; assay: IV-HSL biosynthesis by BjaI in bulk CFPS reactions, quantified with receiver cells; format: cell-based, E. coli XL10-Gold; conditions: 10 nM
Experimental: We first validated bjaI expression using bulk CFPS reactions containing (^35S)-methionine to visualize the newly synthesized protein. The full-length BjaI protein (25 kDa) was successfully translated, and its expression was not influenced by the presence of SAM and IV-CoA (Fig. 4b). To establish whether the BjaI was enzymatically active, CFPS reactions containing 80 µM IV-CoA and 300 µM SAM were incubated at 37 °C for 5 h, and then serially diluted and incubated with BjaRS107R (B0034|CTG) receiver cells. Indeed, IV-HSL was successfully synthesized within the CFPS reactions as the reaction mixture containing the complete set of components (bjaI DNA + SAM + IV-CoA) fully activated gfp expression in the receivers, while no fluorescence output was observed from CFPS reactions containing SAM and IV-CoA, but without bjaI DNA template (Fig. 4c,d). […] Similarly, on transferring this system inside GUVs, BjaI-producing synthetic cells also synthesized sufficient IV-HSL to fully activate gfp expression in BjaRS107R (B0033|ATG) receiver cells. […] The loss in specific activity between CFPS performed in bulk compared to inside GUVs was attributed to the loss of inner solution during emulsion phase transfer and when the GUVs ruptured, less efficient CFPS in GUVs compared to in bulk, and absence of gene expression in some GUVs.
In total, 3 µl CFPS reactions were prepared using PURExpress with 0.8 U µl^−1 murine RNase inhibitor, 5 ng µl^−1 linear bjaI DNA template and 300 µM SAM and 80 µM IV-CoA, as indicated. Reactions were incubated for 5 h at 37 °C using a thermal cycler and then serially diluted in Milli-Q H2O. In total, 1 µl of the samples was added to lidded Corning 96-well plates containing 200 µl BjaI receiver cells (pSB1A3 BjaRS107R (CTG) at OD600 = 0.05). Cells were grown at 37 °C, 800 r.p.m. in a thermomixer with a heated lid for 4 h. OD600 and fluorescence were measured using a Tecan infinite M1000 plate reader (Ex, 488 nm; Em, 510 nm; bandwidth, 5 nm; z position, 23,179 µm and gain, 101).

[2] = system: BjaRWT (B0034|CTG) receiver cells; assay: BjaR receiver cell AHSL dose-response (gfp reporter, plate reader); format: cell-based, E. coli XL10-Gold
Description: These findings are consistent with the predicted translation initiation rates of the respective sequences—translation from the BBa_B0033 RBS provides 1% of protein yield compared to the BBa_B0034 RBS, just as an CTG start codon provides 1% of the protein yield compared to an ATG start codon[30],[31]. This also offers support as to why the ON-state gfp expression level increased in variants with a tighter OFF-state; more cellular resources were available for GFP synthesis when comparatively fewer were allocated to BjaR synthesis. To elucidate the impact of the S107R variant on gene circuit performance, we introduced the S107R variant alone back into the bjaRWT gene, in the context of the BBa_B0033 RBS background.
The BjaR reporter plasmids were retransformed into E. coli XL10-Gold cells for each experiment. A single colony was used to inoculate 5 ml LB + Amp media and incubated at 37 °C, 225 r.p.m. overnight. Overnight cultures were diluted 1/250 or 1/500 in 5 ml M9 minimal media + Amp and incubated at 37 °C, 225 r.p.m. for 3 h and 45 min (until OD600 = ~0.075). Cultures were diluted down to OD600 = 0.05 with M9 minimal media + Amp, and 200 µl was added to wells of a 96-well plate containing 1 µl IV-HSL dissolved in DMSO or 1 µl BjaI CFPS reactions (IV-HSL concentrations obtained from serial dilution from 63.2 µM to 632 pM; final DMSO concentration = 0.5%). Cells were incubated at 37 °C, 800 r.p.m., in a thermomixer with a heated lid for 4 h. Fluorescence and OD600 were measured in a Tecan M1000 infinite plate reader (excitation, 488 nm; emission, 510 nm; bandwidth, 5 nm; gain, 101 and z position, 21,311 µm). The dose–response curves were fitted to the function indicated by Eq. (1), where a = maximal fluorescence output, b = basal fluorescence output, X = concentration of AHSL, GFP = fluorescence at the given condition, EC50 = AHSL at 50% maximal fluorescence output and h = hill coefficient. EC50 and h were derived using the nonlinear regression model based on Eq. (1), in MATLAB. A summary of the dose–response data is available in Supplementary Table 1.1 GFP=b+a−b/1+10^logEC50−X×h

With `CC(C)CC(=O)N[C@H]1CCOC1=O` [IV-HSL, N-isovaleryl-L-homoserine lactone] the GFP [1] was 45669 and 34133 and 41279, the Mean normalised fluorescence [1] was 170055 and the Normalised fluorescence [1] was 160035 and 169389 and 180741. For the same compound, the EC50 ([2]; Escherichia coli, IV-HSL-activated gfp expression) was 2.68 ± 0.48 nM, the hill coefficient ([2]; IV-HSL dose-response curve) was 1.41 and the GFP ([2]; Log([ASHL]) -6.5) was 43330 and 36104 and 38058. For the same compound, the Mean normalised fluorescence ([2]; Log([ASHL]) -6.5) was 201726, the Normalised fluorescence ([2]; Log([ASHL]) -6.5) was 210214 and 194525 and 200438 and the GFP ([2]; Log([ASHL]) -7) was 48602 and 34441 and 36003. For the same compound, the Mean normalised fluorescence ([2]; Log([ASHL]) -7) was 195635, the Normalised fluorescence ([2]; Log([ASHL]) -7) was 221814 and 183269 and 181822 and the GFP ([2]; Log([ASHL]) -7.5) was 42248 and 34562 and 36913. The Mean normalised fluorescence ([2]; Log([ASHL]) -7.5) was 179671, the Normalised fluorescence ([2]; Log([ASHL]) -7.5) was 188397 and 176029 and 174588 and the GFP ([2]; Log([ASHL]) -8) was 35155 and 35886 and 43108. The Mean normalised fluorescence ([2]; Log([ASHL]) -8) was 165401, the Normalised fluorescence ([2]; Log([ASHL]) -8) was 168235 and 168127 and 159840 and the GFP ([2]; Log([ASHL]) -8.5) was 36208 and 37675 and 33945. For the same compound, the Mean normalised fluorescence ([2]; Log([ASHL]) -8.5) was 139606, the Normalised fluorescence ([2]; Log([ASHL]) -8.5) was 151871 and 150220 and 116729 and the Mean normalised fluorescence ([2]; Log([ASHL]) -9) was 82973.4. The Mean normalised fluorescence ([2]; Log([ASHL]) -9.5) was 25740.3, the Mean normalised fluorescence ([2]; Log([ASHL]) -10) was 6739.8 and the GFP ([2]; Log([ASHL]) -10.5) was 896 and 846 and 722. For the same compound, the Mean normalised fluorescence ([2]; Log([ASHL]) -10.5) was 2692.26, the Normalised fluorescence ([2]; Log([ASHL]) -10.5) was 2989.77 and 2763.44 and 2323.58 and the GFP ([2]; Log([ASHL]) -11) was 668 and 631 and 690. The Mean normalised fluorescence ([2]; Log([ASHL]) -11) was 2167.6, the Normalised fluorescence ([2]; Log([ASHL]) -11) was 2233.16 and 2007.95 and 2261.7 and the GFP ([2]; Log([ASHL]) -11.5) was 630 and 671 and 595. For the same compound, the Mean normalised fluorescence ([2]; Log([ASHL]) -11.5) was 2035.58 and the Normalised fluorescence ([2]; Log([ASHL]) -11.5) was 2037.65 and 2202.61 and 1866.48.
